Test results reported in patent EP2524912A1, “Amine derivatives” (Bionomics Limited, priority 2011, dated 2012).

Molecular target: human Kv1.3 (Homo sapiens, UniProt P22001)
Test: Kv1.3 patch-clamp electrophysiology (planar electrode, whole-cell, steady state current)
Assay type: cell-based
Conditions: CHO/Kv1.3 stable cell line; steady state current amplitude at end of 500 ms depolarising pulse to +40 mV; values given as ranges; read-out: IC50 (Kv1.3 ephys steady state)
Experimental: The inhibition data shown for the compounds of the list below was calculated using the steady state current amplitude at the end of the depolarising pulse in patch clamp evaluations (as described in the Pharmacology Example 2).
The human Kv1.3 construct (Kv1.3/pENTR, clone IOH61428) was purchased from Invitrogen and subcloned into pcDNA 3.2-DEST (Invitrogen). CHO-K1 cells obtained from ATCC (cat #CCL-61) were transfected with the Kv1.3/pcDNA3.2DEST construct and a stable cell line was developed through two rounds of limiting dilution under G418 selection. Positive (Kv1.3 expressing) clones were identified using electrophysiology.
CHO/Kv1.x stable cell lines were grown in a humidified atmosphere at 37 °C, 5% CO2 in T-75 flasks containing F12 Kaighn's medium supplemented with 10% fetal calf serum, 2 mM L-glutamine, 100 units/ml penicillin, 100 µg/ml streptomycin and 500 µg/ml G418 (to maintain selection). CHO/Kv1.1 and CHO/Kv1.5 cells used for patching were transferred to 33 °C for 48 hours prior to use.
Kv1.x currents were measured using a planar electrode version (Nanion Technologies GMBH) of the patch-clamp technique. Whole-cell Kv1.x current transients were evoked by 500 ms depolarising voltage pulses to +40 mV from a holding potential of -80 mV applied at 10 s intervals for Kv1.1 and Kv1.5 and at 30 s intervals for Kv1.3 to allow adequate time for recovery from inactivation. Cells were continuously bathed in a buffered saline solution containing (mM): 160 NaCl, 4.5 KCI, 2 CaCl2, 1 MgCl2, 5 glucose, 10 HEPES, pH 7.4, 290-310 mOsm.Kg^-1. The internal (pipette) solution contained (mM): 10 NaCl, 70 KF, 75 KCI, 2 MgCl2, 10 HEPES, 10 EGTA, pH 7.2, 290-310 mOsm.Kg^-1. Series resistance compensation (60-80%) was applied when the peak current amplitude exceeded 2 nA.
Compounds were initially dissolved in DMSO to 10 mM. After further dilution in DMSO, compounds were finally diluted in bath solution 1/200 (to give a final DMSO concentration of 0.5%) and applied directly to the recording chamber. Compounds were added at increasing concentrations allowing ample time for steady state block to be achieved between each concentration. Each compound was tested at 5-6 different concentrations on 2-3 cells. IC50 values can be determined by fitting the average normalised reduction of either the current integral or the steady state current amplitude at the end of the depolarising pulse obtained at each compound concentration to the Hill equation. The IC50 data reported herein is based on the steady state calculation.

Sequence of human Kv1.3 (P22001 whole entry): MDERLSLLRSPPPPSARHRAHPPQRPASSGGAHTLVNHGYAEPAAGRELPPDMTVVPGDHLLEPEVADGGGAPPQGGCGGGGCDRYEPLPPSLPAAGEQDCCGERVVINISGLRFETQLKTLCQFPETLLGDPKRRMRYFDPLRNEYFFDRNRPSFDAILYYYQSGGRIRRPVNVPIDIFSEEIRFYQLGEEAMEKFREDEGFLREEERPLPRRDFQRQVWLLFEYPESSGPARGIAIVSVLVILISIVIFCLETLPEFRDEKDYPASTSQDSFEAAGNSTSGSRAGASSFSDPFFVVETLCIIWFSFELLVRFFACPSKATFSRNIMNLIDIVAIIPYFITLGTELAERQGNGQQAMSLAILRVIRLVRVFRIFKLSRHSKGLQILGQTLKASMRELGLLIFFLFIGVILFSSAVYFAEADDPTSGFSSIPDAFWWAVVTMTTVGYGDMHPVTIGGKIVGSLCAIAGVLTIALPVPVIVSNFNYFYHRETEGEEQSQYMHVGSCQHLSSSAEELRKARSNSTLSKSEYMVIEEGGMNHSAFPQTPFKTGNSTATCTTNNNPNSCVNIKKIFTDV

| IC50 | SMILES |
| --- | --- |
| 50 to 200 nM | CC(C)C(c1ccccc1)N(Cc1ccccn1)C(=O)CCc1ccc(F)cc1 (stereo not drawn) [Example 20, 3-(4-fluorophenyl)-N-(2-methyl-1-phenylpropyl)-N-(pyridin-2-ylmethyl)propanamide] |
| 50 to 200 nM | Cc1cnc(C)c(OCCN(C(=O)CC(C)c2ccc(F)cc2)C(C)c2ccc3c(c2)CCC3)n1 (stereo not drawn) [Example 41, N-[1-(2,3-dihydro-1H-inden-5-yl)ethyl]-3-(4-fluorophenyl)-N-[2-(3,6-dimethylpyrazin-2-yloxy)ethyl]butanamide] |
| 50 to 200 nM | COc1ccc(C(C2CC2)N(Cc2ccccn2)C(=O)CCc2ccc(F)cc2)cc1 (stereo not drawn) [Example 2, N-[cyclopropyl(4-methoxyphenyl)methyl]-3-(4-fluorophenyl)-N-(pyridin-2-ylmethyl)propanamide] |
